The values that follow come from US20240327359A1, “3-ISOXAZOLIDINONE COMPOUND, PREPARATION METHOD, HERBICIDAL COMPOSITION AND APPLICATION THEREOF” (QINGDAO KINGAGROOT CHEMICAL COMPOUND CO., LTD., priority 2021, published 2024).

Each structure is given as a SMILES string.

What all share (type): in vivo
One test deals with Galium aparine. Kind of test: Activity test of the compositions, post-emergence treatment by foliage spray. The following applies: foliage (F), A 16 g a.i./mu. The procedure: The desired active ingredient B was purchased from a reagent company or synthesized by a known method. The technical materials were all dissolved in acetone and diluted with an aqueous solution containing 0.10% emulsifier Tween-80 which were to be used immediately after dilution.
Weeds were cultivated by a pot culture method. […] Weed seeds with plump and uniform grains were selected, soaked in lukewarm water at 25° C. for 6 hours, and germinated in a 28° C. biochemical incubator (in darkness). The weed seeds that had just germinated were evenly placed on the surface of the soil and then covered with 0.5-1 cm soil according to the sizes of seeds.
Each treatment was repeated 4 times. Four pots with 20 weed seeds per pot were treated each time.
The agents were used for only once in total in the experiment. In the stage of 1.5-2 leaves, the weeds were thinned out to maintain 10 weeds per pot. Ten weeds were kept in each treatment, then continued to be cultured until Echinochloa crus-galli var. zelayensis reached the stage of 2-3 leaves, Cirsium setosum reached the stage of 5-6 leaves, Galium aparine reached the stage of 3-4 whorl leaves, Amaranthus retroflexus reached the stage of 3-5 leaves, Echinochloa crusgalli, Lolium multiflorum and Digitaria sanguinalis reached the stage of 3 leaves with one leaf not fully expanding for further treatment.
The well-cultured test materials were evenly placed on a platform with an area of 0.5 m^2, and solution of agents was sprayed on the stems and leaves thereof by the 3WP-2000-type walking spray tower at a dosage of 450 kg/ha and at a spray pressure of 0.3 MPa. After all the solution was sprayed, the valve was closed. After 30 seconds, the door of the spray tower was opened, and the nutritional bowl was taken out. Then the valve was opened, and the spray tube was cleaned by spraying 50 ml of water. After the treatment, the weeds were routinely cultured in a greenhouse.
A method for investigating absolute numbers was employed. Whole seedlings of survival weeds were cut off with a blade along the soil surface, and the fresh weight of the weeds was weighed with an analytical balance. For dead weeds, the fresh weight thereof was zero.
The investigation was performed 21 days after the treatment for only once in total.

The subject of another test is Veronica didyma. Kind of test: Weeding effect in pre-emergence stage. The following applies: 2 weeks. An excerpt:
(§1) The activity level criteria for plant damage (i.e., growth control rate) are as follows:
(§2) The above growth control rates are fresh weight control rates.
(§3) Monocotyledonous and dicotyledonous weed seeds (Descurainia sophia, Capsella bursa-pastoris, Abutilon theophrasti, Galium aparine, Stellaria media, Lithospermum arvense, Rorippa indica, Alopecurus aequalis, Alopecurus japonicus, Eleusine indica, Beckmannia syzigachne, Sclerochloa dura, Phleum paniculatum, Veronica didyma, Bromus japonicus, Aegilops tauschii, Phalaris arundinacea, Amaranthus retroflexus, Chenopodiaceae, Commelina communis, Sonchus arvensis, Convolvulus arvensis, Cirsium setosum, Solanumnigrum, Acalypha australis, Digitaria sanguinalis, Echinochloa crusgalli, Setaria viridis, Setaria glauca, Leptochloa chinensis, Monochoria vaginalis, Sagittaria trifolia, Scirpus juncoides, Cyperus rotundus, Cyperus iria, Cyperus difformis, Fimbristylis, Portulaca oleracea, Xanthium sibiricum, Pharbitis nil, Conyza Canadensis, etc.) and major crop seeds (wheat, corn, rice, soybean, cotton, oilseed rape, millet, sorghum, potato, sesame, ricinus, etc.) were placed in plastic pots filled with soil, then covered with 0.5-2 cm of soil, allowed to grow in a good greenhouse environment. The test plants were treated on the day of sowing. The tested compounds of the present invention were respectively dissolved in acetone, then added with Tween 80, diluted with a certain amount of water to obtain a solution of a certain concentration, and sprayed by a spray tower onto the plants. After the application, the plants were cultured for 2 weeks in the greenhouse, and then the experimental results of the weeding were recorded. The doses of the used compounds were 3, 6, 12, 24, 48 g ai./mu (1 mu=1/15 ha), and the averages were obtained from three replicates.

The subject of another test is Echinochloa crusgalli. Kind of test: Weeding effect in pre-emergence stage. As to conditions: 2 weeks.
From the text: as §1, §2, §3

Another test has as its system Lolium perenne. The experiment in a line: Weeding effect in pre-emergence stage. The following applies: 2 weeks.
From the text: as §1, §2, §3

The subject of another test is Descurainia sophia. The experiment in a line: Weeding effect in pre-emergence stage. As to conditions: 2 weeks.
From the text: as §1, §2, §3

The subject of a further test is Leptochloa chinensis. The experiment in a line: Weeding effect in pre-emergence stage. As to conditions: 2 weeks.
From the text: as §1, §2, §3

Test [1] relates to Echinochloa crusgalli, Scirpus juncoides, Bidens tripartita L., Sagittaria trifolia; rice (japonica rice). The experiment in a line: Transplanted rice safety evaluation and weed control effect evaluation in rice field. As to conditions: weeds 14 days, rice 21 days after treatment; observed with the naked eye. On the procedure: Rice field soil was loaded into a 1/1,000,000 ha pot. The seeds of Echinochloa crusgalli, Scirpus juncoides, and Bidens tripartita L. were sowed and gently covered with soil, then placed in a greenhouse with water storage of 0.5-1 cm deep. The tuber of Sagittaria trifolia was planted in the next day or 2 days later. The water storage was kept at a depth of 3-4 cm thereafter. The weeds were treated by homogeneously dripping the WP or SC water diluents of the compounds of the present invention prepared according to the common preparation methods with a pipette to the specified effective amount when the Echinochloa crusgalli, Scirpus juncoides, and Bidens tripartita L. reached their 0.5 leaf stages and the Sagittaria trifolia reached the time point of the primary leaf stage.
In addition, the rice field soil that loaded into the 1/1,000,000 ha pot was leveled to keep water storage at a depth of 3-4 cm. […]
The development condition of Echinochloa crusgalli, Scirpus juncoides, Bidens tripartita L., and Sagittaria trifolia 14 days after the treatment of the compound of the invention and the development condition of rice 21 days after the treatment of the compound of the invention were respectively observed with the naked eye. The weed control effect was evaluated according to the above activity level criteria. […]

As for `CC1(C)CON(Cc2ccc(Cl)cc2Br)C1=O` [Compound 1], the “Control effect (%) of A applied alone (A)” value with Galium aparine was found to be 55.4%. Also, the “weeding effect in pre-emergence stage, activity level (growth control rate)” value (shortened to “weeding effect in pre-emergence stage”) in the test with Veronica didyma (6 g a.i./mu) was 8 (Level 8: growth control rate is greater than or equal to 80% and less than 100%); in the test on Veronica didyma (12 g a.i./mu), 9; in the test on Veronica didyma (24 g a.i./mu), 9; in the test with Echinochloa crusgalli (3 g a.i./mu), 8 (Level 8: growth control rate is greater than or equal to 80% and less than 100%); with Echinochloa crusgalli (6 g a.i./mu), 9; with Echinochloa crusgalli (12 g a.i./mu), 9. The “weeding effect in pre-emergence stage” value in the test with Echinochloa crusgalli (24 g a.i./mu) is 9; in the test with Lolium perenne (6 g a.i./mu) it was 2 (Level 2: growth control rate is greater than or equal to 15% and less than 30%); in the test on Lolium perenne (24 g a.i./mu), 9; with Descurainia sophia (3 g a.i./mu) it was 7 (Level 7: growth control rate is greater than or equal to 70% and less than 80%); in the test with Descurainia sophia (6 g a.i./mu), 9; in the test with Descurainia sophia (12 g a.i./mu), 9. Further, the “weeding effect in pre-emergence stage” value with Descurainia sophia (24 g a.i./mu), in the test with Leptochloa chinensis (3 g a.i./mu), in the test on Leptochloa chinensis (6 g a.i./mu), with Leptochloa chinensis (12 g a.i./mu) and in the test on Leptochloa chinensis (24 g a.i./mu) was 9 throughout. In test [1], the “weed control effect and transplanted rice safety in rice field” value was “excellent activity and selectivity”.
